# In patent US20090209485A1, “MODULATING ANGIOGENESIS WITH NOD FACTORS SUCH AS GLUCOSAMINE OLIGOSACCHARIDES” (priority 2005, published 2009):
# How the values were obtained:
# Type in all cases: cell-based
# [1] = tested on: HUVEC (human umbilical vein endothelial cells); experiment: HUVEC assay: tube formation on matrigel; conditions: 100 μg/ml, overnight incubation; for Inhibition of HUVEC cell “tiling” and/or change in tube morphology+/−: Matrigel + HUVEC
# Description: HUVEC (human umbilical vein endothelial cells) form tubes on a matrigel support. The tubes form a “paving tile” formation after overnight incubation. Nod factor and derivative thereof were added at 100 μg/ml to determine if they inhibited tube formation and/or caused a change in tube morphology.
# rat aorta [2] = experiment: Rat aorta angiogenesis assay (vessel outgrowth from aorta fragments in fibrin gel)
# Description: Thoracic aortas were excised from three to nine month-old female Fischer rats, rinsed in Hanks balanced salt solution containing 2.5 μg/ml amphotericin B (Sigma, St Louis, Mo.), cleaned of periadventitial fibroadipose tissue and cross-sectioned at 1 mm intervals. The fragments were freed of residual clots. Dissecting and sectioning of the vessels was performed with the aid of a dissecting microscope.
# Assays were performed in 48-well culture plates (Costar, Cambridge, Mass.). Five hundred microlitres of 3 mg/ml fibrinogen (bovine plasma, Calbiochem, La Jolla, Calif.) in serum free-Medium 199 (GibcoBRL) was added to each well with 5 μg/ml of aprotinin (Sigma) to prevent fibrinolysis by the vessel fragments. One vessel fragment was placed in the centre of the well and 15 μl of thrombin (50 NIH U/ml in 0.15M NaCl: bovine plasma: Sigma St Louis, Mo.) was added to the well and mixed rapidly with the fibrinogen. Fibrin gel formation usually occurred within 30 seconds and ideally the vessel fragment remained suspended in the centre of the gel. After gel formation, 0.5 ml/well of Medium M199 supplemented with 20% fetal calf serum (FCS) (Sigma), 0.1% 6-aminocaproic acid, 1% L-glutamine, 1%-amphotericin B and 0.6% gentamycin was added. The substances tested for angiogenesis modulating activity (compounds PI-88, 1, 2, 3, 4, 5, 6 and 7) were dissolved in 50% acetonitrile in ultrapure water and diluted at least 1:100 in the supplemented medium M199. Immediately after embedding of vessel fragment in the fibrin gels, 0.5 ml of medium containing the test substance was added to each well and each treatment was performed in six wells. Control cultures received medium without the test substance. Vessels were cultured at 37° C. in 5% CO2 in air for five days and the medium was changed on day four. Vessel growth was quantified manually under 40× magnification on day five, with growth being estimated as the percentage of the field (×40) around the vessel fragment that was occupied by vessel outgrowths.
# rat aorta [3] = experiment: as above; conditions: Table 4, day 6, concentration not given
# Mouse Aorta = experiment: Mouse aorta angiogenesis assay (vessel outgrowth from aorta fragments in fibrin gel); conditions: Table 5
# Description: Thoracic aortas were excised from 6-8 week old female C57 BL/6 mice, rinsed in Hanks balanced salt solution containing 2.5 μg/ml amphotericin B (Sigma, St Louis, Mo.) cleaned of periadventitial fibroadipose tissue and cross-sectioned at 1 mm intervals. The fragments were freed of residual clots. Dissecting and sectioning of the vessels was performed with the aid of a dissecting microscope. Assays were performed in 48-well culture plates (Costar, Cambridge, Mass.). Five hundred microlitres of 3 mg/ml fibrinogen (bovine plasma, Calbiochem, La Jolla, Calif.) in serum free-Medium 199 (GibcoBRL)) was added to each well with 5 ug/ml of aprotinin (Sigma) to prevent fibrinolysis by the vessel fragments. One vessel fragment was placed in the centre of the well and 15 ul of thrombin (50 NIH U/ml in 0.15M NaCl: EC 3.4.21.5 bovine plasma: Sigma St Louis, Mo.) was added to the well and mixed rapidly with the fibrinogen. Fibrin gel formation usually occurred within 30 seconds and ideally the vessel fragment remained suspended in the centre of the gel. […] Vessel growth was quantified manually under 40× magnification on day 7, with growth being estimated as the percentage of the field (×40) around the vessel fragment that was occupied by vessel outgrowths (see Table 5). • ^§Brown, K. J., Maynes, S. F., Bezos, A., Maguire, D. J., Ford, M. D., & Parish, C. […]
# [4] = Table 1, 10 μg/mL, % of field occupied by vessel outgrowths, control 82 ± 3.2
# [5] = Table 1, 10 μg/mL, '+' = growth above control
# [6] = Table 1, 100 μg/mL, % of field around vessel fragment occupied by vessel outgrowths, control 82 ± 3.2
# [7] = Table 1, 100 μg/mL, '+' = growth above control
# [8] = Table 3, Assay 1, testing at 100 μg/mL
# [9] = Table 3, Assay 2, testing at 100 μg/mL, '+' = growth above control
# [10] = Table 3, Assay 3, testing at 100 μg/mL, '+' = growth above control
# [11] = Table 3, Assay 4, testing at 10 μg/mL
# [12] = Table 3, Assay 5, testing at 10 μg/mL
# [13] = Table 4, Assay 1, day 5, control growth 27%, concentration not given
# [14] = Table 4, Assay 2, day 5, control growth 48%, concentration not given
Compound,Inhibition of HUVEC cell “tiling” and/or change in tube morphology+/− [1],% Growth (rat aorta [2]; [4]) [%],% Growth (rat aorta [2]; [6]) [%],% Inhibit. (rat aorta [2]; [7]) [%],% Inhibition (rat aorta [2]; [8]) [%],% Inhibition (rat aorta [2]; [9]) [%],% Inhibition (rat aorta [2]; [10]) [%],% Inhibition (rat aorta [2]; [11]) [%],% Inhibition (rat aorta [2]; [12]) [%],% Inhibition (rat aorta [2]; [14]) [%],"% Inhibition (rat aorta [3]; Assay 2, control growth 63%) [%]",other results
CC(=O)N[C@H]1[C@H](O[C@H]2[C@H](O)[C@@H](NC(C)=O)[C@H](O[C@H]3[C@H](O)[C@@H](NC(C)=O)[C@H](O[C@H]4[C@H](O)[C@@H](NC(C)=O)C(O)O[C@@H]4CO)O[C@@H]3CO)O[C@@H]2CO)O[C@H](CO)[C@@H](O[C@@H]2O[C@H](CO)[C@@H](O)[C@H](O)[C@H]2N)[C@@H]1O (some centres unmarked) [Compound 1],Yes,80 ± 8.4,53 ± 8.0,35,–,–,–,–,–,–,–,% Inhibit. (rat aorta [2]; [5]): 2.4%
CC(=O)N[C@H]1[C@H](O[C@H]2[C@H](O)[C@@H](NC(C)=O)[C@H](O[C@H]3[C@H](O)[C@@H](NC(C)=O)[C@H](O[C@H]4[C@H](O)[C@@H](NC(C)=O)C(O)O[C@@H]4CO[C@@H]4O[C@@H](C)[C@@H](O)[C@@H](O)[C@@H]4O)O[C@@H]3CO)O[C@@H]2CO)O[C@H](CO)[C@@H](O[C@@H]2O[C@H](CO)[C@@H](O)[C@H](O)[C@H]2N)[C@@H]1O (some centres unmarked) [Compound 6],Yes,73 ± 7.5,53 ± 4.8,35,–,–,–,–,–,–,–,% Inhibit. (rat aorta [2]; [5]): 11%
CO[C@@H]1[C@H](OC[C@H]2OC(O)[C@H](NC(C)=O)[C@@H](O)[C@@H]2O[C@@H]2O[C@H](CO)[C@@H](O[C@@H]3O[C@H](CO)[C@@H](O[C@@H]4O[C@H](CO)[C@@H](O[C@@H]5O[C@H](CO)[C@@H](O)[C@H](O)[C@H]5N)[C@H](O)[C@H]4NC(C)=O)[C@H](O)[C@H]3NC(C)=O)[C@H](O)[C@H]2NC(C)=O)O[C@@H](C)[C@@H](O)[C@H]1O (some centres unmarked) [Compound 7],Yes,94 ± 4.0,90 ± 6.3,–,–,–,–,–,–,–,–,–
CC(=O)N[C@H]1[C@H](O[C@H]2[C@H](O)[C@@H](NC(C)=O)[C@H](O[C@H]3[C@H](O)[C@@H](NC(C)=O)C(O)O[C@@H]3COS(=O)(=O)O)O[C@@H]2CO)O[C@H](CO)[C@@H](O[C@@H]2O[C@H](CO)[C@@H](O)[C@H](O)[C@H]2N)[C@@H]1O (some centres unmarked) [Compound 21],–,–,–,–,74,41,40,24,33,–,–,–
CC(=O)N[C@H]1C(O)O[C@H](CO)[C@@H](O[C@@H]2O[C@H](CO)[C@@H](O)[C@H](O)[C@H]2N)[C@@H]1O (some centres unmarked) [Compound 22],–,–,–,–,5,–,–,24,16,6,0,% Inhibition (rat aorta [2]; [13]): 33%
CC(=O)N[C@H]1[C@H](O[C@H]2[C@H](O)[C@@H](NC(C)=O)[C@H](O[C@H]3[C@H](O)[C@@H](NC(C)=O)C(O)O[C@@H]3CO)O[C@@H]2CO)O[C@H](CO)[C@@H](O[C@@H]2O[C@H](CO)[C@@H](O)[C@H](O)[C@H]2N)[C@@H]1O (some centres unmarked) [Compound 23],–,–,–,–,–,66,29,14,24,–,–,–
CC(=O)N[C@H]1[C@H](O[C@H]2[C@H](O)[C@@H](NC(C)=O)[C@H](O[C@H]3[C@H](O)[C@@H](NC(C)=O)C(O)O[C@@H]3CO[C@@H]3O[C@@H](C)[C@@H](O)[C@@H](O)[C@@H]3O)O[C@@H]2CO)O[C@H](CO)[C@@H](O[C@@H]2O[C@H](CO)[C@@H](O[C@@H]3O[C@H](CO)[C@@H](O)[C@H](O)[C@H]3NC(=O)Cc3ccccc3)[C@H](O)[C@H]2NC(C)=O)[C@@H]1O (some centres unmarked) [Compound 24],–,–,–,–,–,–,–,3,1,6,8,–
CCCCCCC=CCCCOc1cccc(C(=O)N[C@H]2[C@H](O[C@H]3[C@H](O)[C@@H](NC(C)=O)[C@H](O[C@H]4[C@H](O)[C@@H](NC(C)=O)[C@H](O[C@H]5[C@H](O)[C@@H](NC(C)=O)[C@H](O[C@H]6[C@H](O)[C@@H](NC(C)=O)C(O)O[C@@H]6CO[C@@H]6O[C@@H](C)[C@@H](O)[C@@H](O)[C@@H]6O)O[C@@H]5CO)O[C@@H]4CO)O[C@@H]3CO)O[C@H](CO)[C@@H](O)[C@@H]2O)c1 (some centres unmarked) [Compound 25],–,–,–,–,–,76,73,24,21,–,–,"% Inhibition (rat aorta [2]; Table 3, Assay 6, testing at 1.0 μg/mL): 8%; % Inhibition (rat aorta [2]; Table 3, Assay 7, testing at 1.0 μg/mL): 3%"
CC(=O)N[C@H]1[C@H](O[C@H]2[C@H](O)[C@@H](NC(C)=O)[C@H](O[C@H]3[C@H](O)[C@@H](NC(C)=O)[C@H](O[C@H]4[C@H](O)[C@@H](NC(C)=O)C(O)O[C@@H]4CO[C@@H]4O[C@@H](C)[C@@H](O)[C@@H](O)[C@@H]4O)O[C@@H]3CO)O[C@@H]2CO)O[C@H](CO)[C@@H](O[C@@H]2O[C@H](CO)[C@@H](O)[C@H](O)[C@H]2N=[N+]=[N-])[C@@H]1O (some centres unmarked) [Compound 26],–,–,–,–,–,3,15,–,–,–,–,–
PI-88 [reference compound],Yes,–,25 ± 5.4,69,82,77,68,18,14,66,70,"effect on HUVEC tube formation ([1]; matrigel): affected tube formation; % Inhibit. (rat aorta [2]; Table 2, 100 μg/mL): 47%; % Growth (rat aorta [2]; Table 2, 100 μg/mL, control 74 ± 3.8): 39 ± 6.1%; % Inhibition (rat aorta [2]; [13]): 91%; % Inhibition (rat aorta [2]; Table 4, Assay 1, day 7, control growth 68%, concentration not given): 77%; % Inhibition (rat aorta [2]; Table 4, Assay 2, day 7, control growth 83%, concentration not given): 68%; % Inhibition (rat aorta [3]; Assay 1, control growth 43%): 80%; % Inhibition (Mouse Aorta; 10 μg/ml): 30%; % Inhibition (Mouse Aorta; 100 μg/ml): 93%"
